The results in this text go back to patent US12012419B2, “Heterocyclic compound” (Takeda Pharmaceutical Company Limited, priority 2018, dated 2024).

Data set [1] concerns the target T1, human M1 receptor (hCHRM1) (Homo sapiens, UniProt P11229).
T1 construct: expressed in transfected cells
T1 sequence (P11229 1-460): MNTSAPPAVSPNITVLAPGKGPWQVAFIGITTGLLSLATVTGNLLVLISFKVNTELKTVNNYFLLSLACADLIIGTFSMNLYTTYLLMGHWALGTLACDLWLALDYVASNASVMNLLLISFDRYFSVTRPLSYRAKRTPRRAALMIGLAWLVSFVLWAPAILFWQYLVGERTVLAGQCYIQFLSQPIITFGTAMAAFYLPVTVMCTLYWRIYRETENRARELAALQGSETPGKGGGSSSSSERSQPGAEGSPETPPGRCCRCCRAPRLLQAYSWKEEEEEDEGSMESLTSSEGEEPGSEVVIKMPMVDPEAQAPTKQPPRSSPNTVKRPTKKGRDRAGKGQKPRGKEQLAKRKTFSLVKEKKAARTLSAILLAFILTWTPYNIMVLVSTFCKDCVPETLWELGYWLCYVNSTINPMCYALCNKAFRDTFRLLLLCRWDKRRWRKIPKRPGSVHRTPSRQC
As to the kind of experiment: Measurement of M1 receptor positive allosteric modulator (M1PAM) activity. It is filed as cell-based. To be noted: CHO-K1 cells stably expressing hCHRM1, in the presence of acetylcholine at EC20 concentration, IP1 readout. The procedure: Measurement of M1 Receptor Positive Allosteric Modulator (M1PAM) Activity
The activity of a test compound in the presence of acetylcholine at an EC20 concentration affording about 20% action of the maximum activity was measured as PAM activity. The method therefor is as follows. To a 384-well white plate (Greiner) was added 4 μL of the test compound diluted with IP1 Stimulation buffer (CisBio) containing 0.1% fatty acid-free BSA containing 80 nM acetylcholine. Freeze stock of CHO-K1 cells stably expressing human M1 receptor (hCHRM1) was prepared with IP1 Stimulation buffer (CisBio) containing 0.1% fatty acid-free BSA, 4 μL thereof was added (10,000 cells/well) and the mixture was cultured in a 5% CO2 incubator at 37° C. for 1 hr. 4 μL of a solution (CisBio) containing IP1-d2 and Anti-IP1-cryptate Tb conjugate was added, the mixture was incubated at room temperature for 1 hr, and the time-resolved fluorescence signal was measured on an Envision plate reader (PerkinElmer). The activity (%) of the test compound was calculated by defining the value when acetylcholine was added at the final concentration of 20 μM as 100% and the value when DMSO was added instead of the test compound under acetylcholine-free conditions as 0%, and the EC50 value was calculated as a value of 50% of the concentration dependence curve of the test compound.

Data set [2] has as its system Male beagle dogs. As to the kind of experiment: Experiment on gastrointestinal motility in dogs. It is filed as in vivo, dog. To be noted: 0.03 mg/kg orally, 8 hr after administration, compared with the solvent administration group. The procedure:
Experiment on Gastrointestinal Motility in Dogs
Male beagle dogs each equipped with four pressure transducers (one in the ileum and three in the large intestine) were used after an acclimation period for 15 days after surgery. The compound of Example 1 (0.03 mg/kg) was suspended in 0.5% methylcellulose solution and orally administered at a volume of 10 mL/kg. Only 0.5% methylcellulose was administered to a solvent administration group.
HAPC (abbreviation for high amplitude propagated contractions which mean strong contractions propagated from the oral side to the anal side of the large intestine during defecation. Intestinal contraction pattern observed during normal defecation.) at 8 hr after administration was counted using a telemeter for gastrointestinal motility (GTS-850, STARMEDICAL).

Data set [3] concerns Male SD rats. Nature of the data set: Rat defecation experiment. Type of data set: in vivo. To be noted: mean ± standard error. The method, then: Rat Defecation Experiment
Male SD rats (5-6 weeks old) were used after an acclimation period for about 1 week. A test drug (1 mg/kg or […]) was suspended in 0.5% methylcellulose solution and orally administered at a volume of 5 mL/kg, and the number of feces 2 hr later was counted. Only 0.5% methylcellulose was administered to a solvent administration group.

Data set [4] concerns the target T2, MDR1 (Homo sapiens, UniProt P08183).
T2 construct: expressed in transfected cells
As to the kind of experiment: MDR1 membrane permeability test. Type of data set: in vitro ADME. Particulars: LLC-PK1, pH 7.4, 10 μmol/L test compound, Papp B to A / Papp A to B, read-out: Efflux ratio (ER). The procedure: MDR1 Membrane Permeability Test
When MDR1 is expressed in excess in LLC-PK1 cell, which is a polar cell, MDR1 is localized in apical membrane (A), thus promoting transcellular transport from the basement membrane side (B) toward direction A. When a ratio to the transcellular transport in the opposite direction is taken and a ratio to a control cell in which a mock vector has been introduced is further taken, an efflux ratio of MDR1 to simple diffusion (corrected efflux ratio) is calculated. Similarly, when a brain/plasma concentration ratio in Mdr1(−/−) mouse is divided by a brain/plasma concentration ratio in wild-type mouse, an efflux ratio of Mdr1 to simple diffusion in blood-brain barrier (BBB) (Kp, brain ratio, higher value means lower central nervous system permeability) is calculated. […]
Transcellular transport was performed according to the report of Sugimoto et al. (Reference 3). […] After 1 hr, the sample was collected from the side opposite to the side where the drug solution was added, and the concentration of the test compound was measured by LC-MS/MS. […]
Papp, A to B and Papp, B to A (apparent permeability) were calculated from the formula (1), and the efflux ratio (ER) was calculated from the formula (2). […]

Data set [5] is described as follows: Rat PK test. Type of data set: in vivo. Particulars: plasma, male SD rats. The procedure:
As the rat, 8-week-old male SD rats (Japan SLC, Inc.) were used. They were fed on a solid commercially available diet (CE-2, CLEA Japan, Inc.) and allowed to freely ingest tap water as the drinking water. An intravenous administration solution for the rats was prepared by weighing a test compound, dissolving same in dimethylacetamide (DMA) (Wako Pure Chemical Industries, Ltd.), adding the same volume of 1,3-butanediol (Wako Pure Chemical Industries, Ltd.) and mixing by stirring to give a DMA:1,3-butanediol (1:1, v/v) solution. An oral administration solution was prepared by weighing a test compound, pulverizing same in an agate mortar, and gradually adding 0.5 w/v % aqueous methylcellulose solution to give a suspension. For intravenous administration, the solution was administered into femoral vein of the rats at 0.1 mg/0.5 mL/kg (salt converted to free form). For oral administration, the suspension was administered to the rats at 1 mg/5 mL/kg (salt converted to free form). The cassette dosing method was used for the both administration routes, and the test compound was administered in the following manner.
Compound of Example 1 (Intravenous: 10 Compounds Cassette Administration, Oral: 5 Compounds Cassette Administration)
In the case of intravenous administration, blood samples were collected from the tail vein at 5, 10, 15, 30 min, 1, 2, 4, 8 hr after administration, an anticoagulation treatment with heparin sodium (Shimizu Pharmaceutical Co., Ltd.) was performed, and plasma was collected after centrifugation and subjected to the measurement of drug concentration. In the case of oral administration, blood samples were collected from the tail vein at 15, 30 min, 1, 2, 4, 8 hr after administration, an anticoagulation treatment with heparin sodium was performed, and plasma was collected after centrifugation and subjected to the measurement of drug concentration.
All drug concentrations were measured by LC-MS/MS analysis. […]

T2 sequence (P08183 whole entry): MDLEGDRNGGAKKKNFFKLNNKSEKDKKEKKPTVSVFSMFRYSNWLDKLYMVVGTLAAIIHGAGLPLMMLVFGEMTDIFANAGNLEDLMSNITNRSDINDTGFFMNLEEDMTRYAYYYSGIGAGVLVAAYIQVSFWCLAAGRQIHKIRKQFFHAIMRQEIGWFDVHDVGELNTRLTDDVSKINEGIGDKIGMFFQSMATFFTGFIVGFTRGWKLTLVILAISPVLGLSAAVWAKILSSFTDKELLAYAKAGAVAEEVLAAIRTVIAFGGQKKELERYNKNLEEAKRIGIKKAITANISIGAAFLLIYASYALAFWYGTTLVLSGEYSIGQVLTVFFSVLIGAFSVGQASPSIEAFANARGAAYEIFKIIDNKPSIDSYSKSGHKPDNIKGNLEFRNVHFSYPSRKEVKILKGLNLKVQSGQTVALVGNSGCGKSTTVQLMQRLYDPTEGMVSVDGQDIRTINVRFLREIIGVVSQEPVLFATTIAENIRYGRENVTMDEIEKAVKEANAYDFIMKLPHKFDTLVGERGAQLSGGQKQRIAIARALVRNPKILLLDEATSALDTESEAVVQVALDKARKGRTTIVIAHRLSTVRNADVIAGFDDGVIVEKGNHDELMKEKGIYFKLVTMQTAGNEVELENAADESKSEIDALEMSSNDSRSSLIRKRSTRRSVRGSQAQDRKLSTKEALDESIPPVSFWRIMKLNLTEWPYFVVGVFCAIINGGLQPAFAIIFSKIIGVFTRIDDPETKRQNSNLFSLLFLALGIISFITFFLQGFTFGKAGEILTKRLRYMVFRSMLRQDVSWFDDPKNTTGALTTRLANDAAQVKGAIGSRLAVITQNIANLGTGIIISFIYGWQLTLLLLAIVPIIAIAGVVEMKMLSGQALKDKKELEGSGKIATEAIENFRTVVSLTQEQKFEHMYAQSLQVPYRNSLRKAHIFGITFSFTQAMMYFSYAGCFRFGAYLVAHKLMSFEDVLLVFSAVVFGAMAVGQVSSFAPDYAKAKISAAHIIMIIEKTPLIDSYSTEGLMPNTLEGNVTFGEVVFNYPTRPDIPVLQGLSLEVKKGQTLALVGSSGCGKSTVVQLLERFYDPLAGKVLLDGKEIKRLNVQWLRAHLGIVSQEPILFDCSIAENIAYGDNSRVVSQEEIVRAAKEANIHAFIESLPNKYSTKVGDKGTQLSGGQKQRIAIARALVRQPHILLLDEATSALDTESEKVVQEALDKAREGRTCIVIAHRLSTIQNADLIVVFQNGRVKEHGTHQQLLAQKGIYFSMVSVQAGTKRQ

`COCCNC(=O)c1ccc(Cc2cc3c(c4c2OCC4)OCN([C@H]2CCOC[C@@H]2O)C3=O)cc1F` [Example 1, 1,5-anhydro-2,3-dideoxy-3-[6-({3-fluoro-4-[(2-methoxyethyl)carbamoyl]phenyl}methyl)-4-oxo-8,9-dihydro-2H-furo[2,3-h][1,3]benzoxazin-3(4H)-yl]-L-threo-pentitol]: the EC50 in data set [1] was determined as 0.31 nM. In data set [2], the “number of HAPCs in the intestinal tract” value was “an increase in the number of HAPCs in the intestinal tract was observed”. The “number of feces 2 hr later” value came to 14.8 ± 1.2 in data set [3] (1 mg/kg orally) and 13.9 ± 2.1 in data set [3] (3 mg/kg orally). Besides, the efflux ratio at 1 h, 10 μmol/L in data set [4] was 15. In data set [5] (intravenous 0.1 mg/kg, 10 compounds cassette administration), the MRT came to 48 min. In addition, in data set [5] (intravenous 0.1 mg/kg, 10 compounds cassette administration, read-out: CL total (converted)), the clearance is 12.6 mL/min/kg. In addition, in data set [5] (oral 1 mg/kg, 5 compounds cassette administration), the Tmax was found to be 60 min.

One may read the EC50 as the concentration that produces a half-maximal response. One may read the MRT as the average time that molecules of a dose stay in the body. A word on the Tmax: it is the time from dosing to the highest level.
